“And” between values parts separate entries of the source, which are not always exact repeats. Equal entries are not always repeated.
Columns and labels:
SfurOBP1 = SfurOBP1 (Sogatella furcifera, UniProt V5T8N5); experiment: biochemical; type: binding; conditions: for Fluorescence competitive binding assay, fluorescence intensity: OBP1, three replicate columns
How it was run: (§1)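 First, 2.0 µM protein in 50 mM Tris-HCl (pH 7.4) was titrated with 1-NPN to obtain K1-NPN. Then odorants (2–20 µM final) competed against 2.0 µM 1-NPN, with fluorescence (ex 337 nm) recorded after 2 min. Ki was computed from IC50 via Ki = IC50/(1 + [1-NPN]/K1-NPN).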

SfurOBP11 = SfurOBP11 (Sogatella furcifera, UniProt V5T6E3); experiment: biochemical; type: binding
How it was run: as §1

SfurOBP3 = SfurOBP3 (Sogatella furcifera, UniProt V5T818); experiment: biochemical; type: binding; conditions: for Fluorescence competitive binding assay, fluorescence intensity: OBP3, three replicate columns
How it was run: as §1

SfurOBP2 = SfurOBP2 (Sogatella furcifera, UniProt V5T759); experiment: biochemical; type: binding
How it was run: as §1

S. furcifera adults = experiment: Y-tube olfactometer behavioral trials; type: in vivo, Sogatella furcifera; conditions: odorant 50 µL/L vs hexane
How it was run: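 Single S. furcifera adults (2 days post-emergence, starved 0.5 h) chose between odorant (100 µL of 50 µL/L on filter paper) and hexane control in a glass Y-tube, charcoal-filtered humidified air 300 mL/min per arm, 25 ± 1 °C, 50% RH. Choice scored if insect passed half an arm and stayed >1 min within 10 min; 45 insects per compound, chi-squared test.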

Sequence of SfurOBP3 (V5T818 entry or part of it): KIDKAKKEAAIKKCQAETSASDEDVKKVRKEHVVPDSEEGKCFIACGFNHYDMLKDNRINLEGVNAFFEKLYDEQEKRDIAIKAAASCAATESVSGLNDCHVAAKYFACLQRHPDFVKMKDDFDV
Sequence of SfurOBP11 (V5T6E3 entry or part of it): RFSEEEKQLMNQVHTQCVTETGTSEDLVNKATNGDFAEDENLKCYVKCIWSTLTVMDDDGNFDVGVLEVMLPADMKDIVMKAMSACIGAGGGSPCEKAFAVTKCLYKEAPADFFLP
Sequence of SfurOBP2 (V5T759 entry or part of it): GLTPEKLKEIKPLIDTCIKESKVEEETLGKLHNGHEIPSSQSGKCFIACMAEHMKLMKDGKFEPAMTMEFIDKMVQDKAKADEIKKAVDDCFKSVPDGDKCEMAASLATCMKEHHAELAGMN
Sequence of SfurOBP1 (V5T8N5 entry or part of it): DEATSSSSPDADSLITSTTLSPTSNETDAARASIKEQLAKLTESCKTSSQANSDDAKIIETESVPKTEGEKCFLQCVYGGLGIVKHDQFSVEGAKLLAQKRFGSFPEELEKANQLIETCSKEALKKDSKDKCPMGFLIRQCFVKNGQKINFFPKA

CCCCCC(C)=O [2-heptanone]
Fluorescence competitive binding assay, fluorescence intensity (SfurOBP1; ligand concentration 2 (μM)): 5565 and 5797 and 5680
Fluorescence competitive binding assay, fluorescence intensity (SfurOBP1; ligand concentration 4 (μM)): 6133 and 7369 and 7766
Fluorescence competitive binding assay, fluorescence intensity (SfurOBP1; ligand concentration 6 (μM)): 7319 and 6450 and 6758
Fluorescence competitive binding assay, fluorescence intensity (SfurOBP1; ligand concentration 8 (μM)): 6247 and 6677 and 6608
Fluorescence competitive binding assay, fluorescence intensity (SfurOBP1; ligand concentration 10 (μM)): 5974 and 6580 and 6200
Fluorescence competitive binding assay, fluorescence intensity (SfurOBP1; ligand concentration 12 (μM)): 6115 and 6844 and 6487
Fluorescence competitive binding assay, fluorescence intensity (SfurOBP1; ligand concentration 14 (μM)): 7227 and 6939 and 7296
Fluorescence competitive binding assay, fluorescence intensity (SfurOBP1; ligand concentration 16 (μM)): 7221 and 7791 and 6651
Fluorescence competitive binding assay, fluorescence intensity (SfurOBP1; ligand concentration 18 (μM)): 6902 and 6623 and 6730
Fluorescence competitive binding assay, fluorescence intensity (SfurOBP1; ligand concentration 20 (μM)): 6454 and 6429 and 6479
IC50 (SfurOBP1; SfurOBP1, protein and 1-NPN both 2.0 µM, competitor 2-20 µM, read-out: IC50): > 20 µM
IC50 (SfurOBP11; SfurOBP11, protein and 1-NPN both 2.0 µM, competitor 2-20 µM, read-out: IC50): > 20 µM
Fluorescence intensity, fluorescence competitive binding assay, OBP11 (SfurOBP11; ligand concentration 2, replicate 1): 24306
Fluorescence intensity, fluorescence competitive binding assay, OBP11 (SfurOBP11; ligand concentration 2, replicate 2): 24787
Fluorescence intensity, fluorescence competitive binding assay, OBP11 (SfurOBP11; ligand concentration 2, replicate 3): 25268
Fluorescence intensity, fluorescence competitive binding assay, OBP11 (SfurOBP11; ligand concentration 4, replicate 1): 24848
Fluorescence intensity, fluorescence competitive binding assay, OBP11 (SfurOBP11; ligand concentration 4, replicate 2): 24623
Fluorescence intensity, fluorescence competitive binding assay, OBP11 (SfurOBP11; ligand concentration 4, replicate 3): 25072
Fluorescence intensity, fluorescence competitive binding assay, OBP11 (SfurOBP11; ligand concentration 6, replicate 1): 24984
Fluorescence intensity, fluorescence competitive binding assay, OBP11 (SfurOBP11; ligand concentration 6, replicate 2): 24187
Fluorescence intensity, fluorescence competitive binding assay, OBP11 (SfurOBP11; ligand concentration 6, replicate 3): 25781
Fluorescence intensity, fluorescence competitive binding assay, OBP11 (SfurOBP11; ligand concentration 8, replicate 1): 23438
Fluorescence intensity, fluorescence competitive binding assay, OBP11 (SfurOBP11; ligand concentration 8, replicate 2): 23156
Fluorescence intensity, fluorescence competitive binding assay, OBP11 (SfurOBP11; ligand concentration 8, replicate 3): 23719
Fluorescence intensity, fluorescence competitive binding assay, OBP11 (SfurOBP11; ligand concentration 10, replicate 1): 22448
Fluorescence intensity, fluorescence competitive binding assay, OBP11 (SfurOBP11; ligand concentration 10, replicate 2): 22213
Fluorescence intensity, fluorescence competitive binding assay, OBP11 (SfurOBP11; ligand concentration 10, replicate 3): 22684
Fluorescence intensity, fluorescence competitive binding assay, OBP11 (SfurOBP11; ligand concentration 12, replicate 1): 22134
Fluorescence intensity, fluorescence competitive binding assay, OBP11 (SfurOBP11; ligand concentration 12, replicate 2): 22969
Fluorescence intensity, fluorescence competitive binding assay, OBP11 (SfurOBP11; ligand concentration 12, replicate 3): 22151
Fluorescence intensity, fluorescence competitive binding assay, OBP11 (SfurOBP11; ligand concentration 14, replicate 1): 21048
Fluorescence intensity, fluorescence competitive binding assay, OBP11 (SfurOBP11; ligand concentration 14, replicate 2): 20368
Fluorescence intensity, fluorescence competitive binding assay, OBP11 (SfurOBP11; ligand concentration 14, replicate 3): 20708
Fluorescence intensity, fluorescence competitive binding assay, OBP11 (SfurOBP11; ligand concentration 16, replicate 1): 19801
Fluorescence intensity, fluorescence competitive binding assay, OBP11 (SfurOBP11; ligand concentration 16, replicate 2): 20307
Fluorescence intensity, fluorescence competitive binding assay, OBP11 (SfurOBP11; ligand concentration 16, replicate 3): 20932
Fluorescence intensity, fluorescence competitive binding assay, OBP11 (SfurOBP11; ligand concentration 18, replicate 1): 20181
Fluorescence intensity, fluorescence competitive binding assay, OBP11 (SfurOBP11; ligand concentration 18, replicate 2): 20256
Fluorescence intensity, fluorescence competitive binding assay, OBP11 (SfurOBP11; ligand concentration 18, replicate 3): 20300
Fluorescence intensity, fluorescence competitive binding assay, OBP11 (SfurOBP11; ligand concentration 20, replicate 1): 20105
Fluorescence intensity, fluorescence competitive binding assay, OBP11 (SfurOBP11; ligand concentration 20, replicate 2): 20028
Fluorescence intensity, fluorescence competitive binding assay, OBP11 (SfurOBP11; ligand concentration 20, replicate 3): 20212
Fluorescence competitive binding assay, fluorescence intensity (SfurOBP3; ligand concentration 2): 37101 and 37506 and 37304
Fluorescence competitive binding assay, fluorescence intensity (SfurOBP3; ligand concentration 4): 36141 and 37871 and 37816
Fluorescence competitive binding assay, fluorescence intensity (SfurOBP3; ligand concentration 6): 36419 and 39158 and 37789
Fluorescence competitive binding assay, fluorescence intensity (SfurOBP3; ligand concentration 8): 33665 and 34797 and 35932
Fluorescence competitive binding assay, fluorescence intensity (SfurOBP3; ligand concentration 10): 33290 and 35900 and 35256
Fluorescence competitive binding assay, fluorescence intensity (SfurOBP3; ligand concentration 12): 29962 and 33001 and 33859
Fluorescence competitive binding assay, fluorescence intensity (SfurOBP3; ligand concentration 14): 28260 and 30707 and 32190
Fluorescence competitive binding assay, fluorescence intensity (SfurOBP3; ligand concentration 16): 28891 and 29426 and 29159
Fluorescence competitive binding assay, fluorescence intensity (SfurOBP3; ligand concentration 18): 26989 and 27471 and 26506
Fluorescence competitive binding assay, fluorescence intensity (SfurOBP3; ligand concentration 20): 26994 and 26547 and 27440
binding affinity to SfurOBP3 (in words) (SfurOBP3; SfurOBP3): high binding affinities
IC50 (SfurOBP3; SfurOBP3, protein and 1-NPN both 2.0 µM, competitor 2-20 µM, read-out: IC50): 15.5 µM
IC50 (SfurOBP2; SfurOBP2, protein and 1-NPN both 2.0 µM, competitor 2-20 µM, read-out: IC50): > 20 µM
Fluorescence competitive binding assay, OBP2 (raw fluorescence reading) (SfurOBP2; ligand concentration 2 (unit not given), replicate column 1 of 3): 19792
Fluorescence competitive binding assay, OBP2 (raw fluorescence reading) (SfurOBP2; ligand concentration 2 (unit not given), replicate column 2 of 3): 17859
Fluorescence competitive binding assay, OBP2 (raw fluorescence reading) (SfurOBP2; ligand concentration 2 (unit not given), replicate column 3 of 3): 20079
Fluorescence competitive binding assay, OBP2 (raw fluorescence reading) (SfurOBP2; ligand concentration 4 (unit not given), replicate column 1 of 3): 17338
Fluorescence competitive binding assay, OBP2 (raw fluorescence reading) (SfurOBP2; ligand concentration 4 (unit not given), replicate column 2 of 3): 18012
Fluorescence competitive binding assay, OBP2 (raw fluorescence reading) (SfurOBP2; ligand concentration 4 (unit not given), replicate column 3 of 3): 20388
Fluorescence competitive binding assay, OBP2 (raw fluorescence reading) (SfurOBP2; ligand concentration 6 (unit not given), replicate column 1 of 3): 17013
Fluorescence competitive binding assay, OBP2 (raw fluorescence reading) (SfurOBP2; ligand concentration 6 (unit not given), replicate column 2 of 3): 18530
Fluorescence competitive binding assay, OBP2 (raw fluorescence reading) (SfurOBP2; ligand concentration 6 (unit not given), replicate column 3 of 3): 19352
Fluorescence competitive binding assay, OBP2 (raw fluorescence reading) (SfurOBP2; ligand concentration 8 (unit not given), replicate column 1 of 3): 15771
Fluorescence competitive binding assay, OBP2 (raw fluorescence reading) (SfurOBP2; ligand concentration 8 (unit not given), replicate column 2 of 3): 11853
Fluorescence competitive binding assay, OBP2 (raw fluorescence reading) (SfurOBP2; ligand concentration 8 (unit not given), replicate column 3 of 3): 17932
Fluorescence competitive binding assay, OBP2 (raw fluorescence reading) (SfurOBP2; ligand concentration 10 (unit not given), replicate column 1 of 3): 15741
Fluorescence competitive binding assay, OBP2 (raw fluorescence reading) (SfurOBP2; ligand concentration 10 (unit not given), replicate column 2 of 3): 17236
Fluorescence competitive binding assay, OBP2 (raw fluorescence reading) (SfurOBP2; ligand concentration 10 (unit not given), replicate column 3 of 3): 17972
Fluorescence competitive binding assay, OBP2 (raw fluorescence reading) (SfurOBP2; ligand concentration 12 (unit not given), replicate column 1 of 3): 14577
Fluorescence competitive binding assay, OBP2 (raw fluorescence reading) (SfurOBP2; ligand concentration 12 (unit not given), replicate column 2 of 3): 14468
Fluorescence competitive binding assay, OBP2 (raw fluorescence reading) (SfurOBP2; ligand concentration 12 (unit not given), replicate column 3 of 3): 15583
Fluorescence competitive binding assay, OBP2 (raw fluorescence reading) (SfurOBP2; ligand concentration 14 (unit not given), replicate column 1 of 3): 14055
Fluorescence competitive binding assay, OBP2 (raw fluorescence reading) (SfurOBP2; ligand concentration 14 (unit not given), replicate column 2 of 3): 13126
Fluorescence competitive binding assay, OBP2 (raw fluorescence reading) (SfurOBP2; ligand concentration 14 (unit not given), replicate column 3 of 3): 14409
Fluorescence competitive binding assay, OBP2 (raw fluorescence reading) (SfurOBP2; ligand concentration 16 (unit not given), replicate column 1 of 3): 12777
Fluorescence competitive binding assay, OBP2 (raw fluorescence reading) (SfurOBP2; ligand concentration 16 (unit not given), replicate column 2 of 3): 13653
Fluorescence competitive binding assay, OBP2 (raw fluorescence reading) (SfurOBP2; ligand concentration 16 (unit not given), replicate column 3 of 3): 13817
Fluorescence competitive binding assay, OBP2 (raw fluorescence reading) (SfurOBP2; ligand concentration 18 (unit not given), replicate column 1 of 3): 17551
Fluorescence competitive binding assay, OBP2 (raw fluorescence reading) (SfurOBP2; ligand concentration 18 (unit not given), replicate column 2 of 3): 16085
Fluorescence competitive binding assay, OBP2 (raw fluorescence reading) (SfurOBP2; ligand concentration 18 (unit not given), replicate column 3 of 3): 21813
Fluorescence competitive binding assay, OBP2 (raw fluorescence reading) (SfurOBP2; ligand concentration 20 (unit not given), replicate column 1 of 3): 14165
Fluorescence competitive binding assay, OBP2 (raw fluorescence reading) (SfurOBP2; ligand concentration 20 (unit not given), replicate column 2 of 3): 14167
Fluorescence competitive binding assay, OBP2 (raw fluorescence reading) (SfurOBP2; ligand concentration 20 (unit not given), replicate column 3 of 3): 13571
behavioral response of S. furcifera (in words) (S. furcifera adults): strongly attracted
number of insects choosing hexane arm (S. furcifera adults; adults): 8
number of insects choosing volatilies arm (S. furcifera adults; adults): 21
number of insects failed (no choice) (S. furcifera adults; adults): 11
